Results published in ChEMBL document CHEMBL1135579, “Serine-threonine protein phosphatase inhibitors: development of potential therapeutic strategies” (J Med Chem, 2002).
Numbered stars: 1 amine (or outer) side, 2 acyl side, 3 side chain; on linkers, the order of the positions; unused ones are H or OH. Bridge positions count the residues as written; N and C are the ends. Square brackets hold non-standard residues; d marks the D form. Peptide text beside a SMILES is read from it. Adda = CO[C@@H](Cc1ccccc1)[C@@H](C)/C=C(C)/C=C/[C@H](N[*:1])[C@H](C)C(=O)[*:2]; dAsp(3S-Me) = C[C@H](C(=O)[*:3])[C@@H](N[*:1])C(=O)[*:2]; d(γGlu) = O=C(O)[C@@H](CCC(=O)[*:2])N[*:1]; NMeDha = C=C(NC)C(=O)O

Experiments:
[1] = Inhibition of microcystin analogues to catalytic subunits of Serine/threonine protein phosphatase 1C
Jurkat [2] = experiment: Inhibition of production of IL-2 secretion in Jurkat cells; type: functional, cell-based; settings: Homo sapiens
Jurkat [3] = experiment: Inhibition of production of beta-galactosidase thymidine kinase RGA in Jurkat cells; type: functional, cell-based; settings: Homo sapiens
Jurkat [4] = experiment: Inhibition of production of beta-galactosidase IL-2 RGA in Jurkat cells; type: functional, cell-based; settings: Homo sapiens
[5] = Exogenous inhibition concentration of Serine/threonine protein phosphatase 2C (PP2C); NI means no inhibition.
[6] = Exogenous inhibition of Serine/threonine protein phosphatase 1 (PP1); parameters: species or system Homo sapiens
[7] = Exogenous inhibition concentration of Serine/threonine protein phosphatase 2A (PP2A)
[8] = Exogenous inhibition concentration of Serine/threonine protein phosphatase 2C ([…])
[9] = target: Serine/threonine-protein phosphatase PP1-gamma catalytic subunit (Homo sapiens, UniProt P36873, C127S); experiment: Inhibition of Serine/threonine protein phosphatase 1 (PP1) mutants by natural toxins in C127S
[10] = target: T1, Serine/threonine-protein phosphatase PP1-gamma catalytic subunit (Homo sapiens, UniProt P36873); experiment: Inhibition of Serine/threonine protein phosphatase 1 (PP1) mutants by natural toxins in wild type
Target sequence in this assay (P36873 2-323 limits assumed, stated change not applied): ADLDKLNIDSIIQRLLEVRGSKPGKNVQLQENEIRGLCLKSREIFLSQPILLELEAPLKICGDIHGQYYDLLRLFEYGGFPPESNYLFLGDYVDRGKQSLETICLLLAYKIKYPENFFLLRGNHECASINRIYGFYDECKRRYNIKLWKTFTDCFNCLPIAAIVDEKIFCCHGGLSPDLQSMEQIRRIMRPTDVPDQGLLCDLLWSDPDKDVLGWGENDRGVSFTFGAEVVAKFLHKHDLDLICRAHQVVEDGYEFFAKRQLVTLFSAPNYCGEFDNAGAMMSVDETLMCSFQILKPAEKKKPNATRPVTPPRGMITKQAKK

[11] = Exogenous inhibition concentration of Serine/threonine protein phosphatase 5 (PP5)
[12] = target: Serine/threonine-protein phosphatase PP1-gamma catalytic subunit (Homo sapiens, UniProt P36873, D208A); experiment: Inhibition of Serine/threonine protein phosphatase 1 (PP1) mutants by natural toxins in D208A
[13] = target: Serine/threonine-protein phosphatase PP1-gamma catalytic subunit (Homo sapiens, UniProt P36873, Y272F); experiment: Inhibition of Serine/threonine protein phosphatase 1 (PP1) mutants by natural toxins in Y272F
[14] = target: Serine/threonine-protein phosphatase PP1-gamma catalytic subunit (Homo sapiens, UniProt P36873, E275R); experiment: Inhibition of Serine/threonine protein phosphatase 1 (PP1) mutants by natural toxins in E275R
[15] = Exogenous inhibition concentration of Serine/threonine protein phosphatase 4 (PP4)
[16] = target: Serine/threonine-protein phosphatase PP1-gamma catalytic subunit (Homo sapiens, UniProt P36873, D220V); experiment: Inhibition of Serine/threonine protein phosphatase 1 (PP1) mutants by natural toxins in D220V
[17] = target: Serine/threonine-protein phosphatase PP1-gamma catalytic subunit (Homo sapiens, UniProt P36873, R221S); experiment: Inhibition of Serine/threonine protein phosphatase 1 (PP1) mutants by natural toxins in R221S
[18] = target: Serine/threonine-protein phosphatase PP1-gamma catalytic subunit (Homo sapiens, UniProt P36873, N124D); experiment: Inhibition of Serine/threonine protein phosphatase 1 (PP1) mutants by natural toxins in N124D
[19] = target: Serine/threonine-protein phosphatase PP1-gamma catalytic subunit (Homo sapiens, UniProt P36873, H248N); experiment: Inhibition of Serine/threonine protein phosphatase 1 (PP1) mutants by natural toxins in H248N
[20] = target: Serine/threonine-protein phosphatase PP1-gamma catalytic subunit (Homo sapiens, UniProt P36873, R96A); experiment: Inhibition of Serine/threonine protein phosphatase 1 (PP1) mutants by natural toxins in R96A
[21] = Exogenous inhibition concentration of Serine/threonine protein phosphatase 2B (PP2B)
[22] = Inhibition of growth after 72 hr continuous exposure to test compounds in Osteosarcoma 143B tumor cell lines; type: functional; settings: Homo sapiens
[23] = Inhibition of growth after 72 hr continuous exposure to test compounds in Ovarian A2780 tumor cell lines; type: functional; settings: A2780, 72 h
[24] = Inhibition of growth after 72 hr continuous exposure to test compounds in Colon HCT 116 tumor cell lines; type: functional; settings: Homo sapiens, HCT-116, 72 h
[25] = Inhibition of growth after 72 hr continuous exposure to test compounds in Ovarian ADDP tumor cell lines; type: functional
[26] = target: T1, Serine/threonine-protein phosphatase PP1-gamma catalytic subunit; experiment: Inhibition of Serine/threonine protein phosphatase 1 by anhydride modified Cantharidin analogues
Target sequence in this assay (P36873 whole entry): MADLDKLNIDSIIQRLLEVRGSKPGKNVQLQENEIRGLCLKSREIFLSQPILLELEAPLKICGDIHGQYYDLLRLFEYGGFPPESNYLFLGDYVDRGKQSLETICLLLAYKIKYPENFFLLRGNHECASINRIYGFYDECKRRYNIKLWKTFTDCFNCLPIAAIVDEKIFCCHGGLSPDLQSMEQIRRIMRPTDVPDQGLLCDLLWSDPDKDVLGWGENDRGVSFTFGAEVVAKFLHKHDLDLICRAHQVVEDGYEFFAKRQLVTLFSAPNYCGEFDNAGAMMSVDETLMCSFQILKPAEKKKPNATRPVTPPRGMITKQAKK

[27] = Inhibition of growth after 72 hr continuous exposure to test compounds in colon HT-29 tumor cell lines; type: functional; settings: Homo sapiens, HT-29, 72 h

Chain of Serine/threonine-protein phosphatase PP1-gamma catalytic subunit (Homo sapiens, UniProt P36873, D208A) (P36873 2-323 D208A limits assumed): as the sequence (P36873 2-323 limits assumed, stated change not applied) above, with D207A counted along it
Chain of Serine/threonine-protein phosphatase PP1-gamma catalytic subunit (Homo sapiens, UniProt P36873, R96A) (P36873 2-323 R96A limits assumed): as the sequence (P36873 2-323 limits assumed, stated change not applied) above, with R95A counted along it
Chain of Serine/threonine-protein phosphatase PP1-gamma catalytic subunit (Homo sapiens, UniProt P36873, C127S) (P36873 2-323 C127S limits assumed): as the sequence (P36873 2-323 limits assumed, stated change not applied) above, with C126S counted along it
Chain of Serine/threonine-protein phosphatase PP1-gamma catalytic subunit (Homo sapiens, UniProt P36873, Y272F) (P36873 2-323 Y272F limits assumed): as the sequence (P36873 2-323 limits assumed, stated change not applied) above, with Y271F counted along it
Chain of Serine/threonine-protein phosphatase PP1-gamma catalytic subunit (Homo sapiens, UniProt P36873, N124D) (P36873 2-323 N124D limits assumed): as the sequence (P36873 2-323 limits assumed, stated change not applied) above, with N123D counted along it
Chain of Serine/threonine-protein phosphatase PP1-gamma catalytic subunit (Homo sapiens, UniProt P36873, D220V) (P36873 2-323 D220V limits assumed): as the sequence (P36873 2-323 limits assumed, stated change not applied) above, with D219V counted along it
Chain of Serine/threonine-protein phosphatase PP1-gamma catalytic subunit (Homo sapiens, UniProt P36873, R221S) (P36873 2-323 R221S limits assumed): as the sequence (P36873 2-323 limits assumed, stated change not applied) above, with R220S counted along it
Chain of Serine/threonine-protein phosphatase PP1-gamma catalytic subunit (Homo sapiens, UniProt P36873, E275R) (P36873 2-323 E275R limits assumed): as the sequence (P36873 2-323 limits assumed, stated change not applied) above, with E274R counted along it
Chain of Serine/threonine-protein phosphatase PP1-gamma catalytic subunit (Homo sapiens, UniProt P36873, H248N) (P36873 2-323 H248N limits assumed): as the sequence (P36873 2-323 limits assumed, stated change not applied) above, with H247N counted along it

For `CO[C@@H](Cc1ccccc1)[C@@H](C)/C=C(C)/C=C/[C@@H]1NC(=O)[C@H](C)NC(=O)[C@@H](C)[C@H](C(=O)O)CC(=O)[C@H](CC(C)C)NC(=O)[C@@H](C)NC(=O)CN(C2CCCCC2)C(=O)CC[C@H](C(=O)O)NC(=O)[C@H]1C`, the IC50 [1] was 0.0008 µM.

For `CN(C)C(=O)C1C(C(=O)O)C2CC[C@H]1O2` (stereo partly drawn), the IC50 (Jurkat [2]) was 5 µM, the IC50 (Jurkat [3]) was 100 µM and the IC50 (Jurkat [4]) was 4.7 µM.

`C=C1C(=O)N[C@H](CN)C(=O)N[C@@H](CC(C)C)C(=O)C[C@@H](C(=O)O)[C@H](C)C(=O)N[C@@H](C)C(=O)N[C@@H](/C=C/C(C)=C/[C@H](C)[C@H](Cc2ccccc2)OC)[C@H](C)C(=O)N[C@@H](C(=O)O)CCC(=O)N1C` showed an IC50 [1] of 0.003 µM.

Work on `C=C1C(=O)N[C@H](C)C(=O)N[C@@H](CC2CCCCC2)C(=O)C[C@@H](C(=O)O)[C@H](C)C(=O)N[C@@H](C)C(=O)N[C@@H](/C=C/C(C)=C/[C@H](C)[C@H](Cc2ccccc2)OC)[C@H](C)C(=O)N[C@@H](C(=O)O)CCC(=O)N1C` yielded an IC50 [1] of 0.00052 µM.

With `CO[C@H]([C@H](O)CC(=O)[C@@H](C)[C@@H](O)CC[C@@H](C)[C@@H]1O[C@]2(CC[C@@H](C)[C@H](CC[C@H](C)C(C)=O)O2)CC[C@@H]1C)[C@H](OC(=O)C[C@@H](O)C1=C(C)C(=O)OC1=O)C(C)C` [TAUTOMYCIN] the IC50 [5] was “no inhibition”, the IC50 [6] was 0.0007 µM and the IC50 [7] was 0.0007 µM. It also gave an IC50 [8] of 70000 µM.

`CO[C@@H](Cc1ccccc1)[C@@H](C)/C=C(C)/C=C/[C@@H]1NC(=O)[C@H](C)NC(=O)[C@@H](C)[C@H](C(=O)O)CC(=O)[C@H](CC(C)C)NC(=O)[C@@H](C)NC(=O)CN(C)C(=O)CC[C@H](C(=O)O)NC(=O)[C@H]1C` showed an IC50 [1] of 0.0008 µM.

`C=C1C(=O)N[C@H](C)C(=O)N[C@@H](CC(C)C)C(=O)N[C@@H](C(=O)O)[C@H](C)C(=O)N[C@@H](CCCNC(=N)N)C(=O)N[C@@H](/C=C/C(C)=C/[C@H](C)[C@H](Cc2ccccc2)OC)[C@H](C)C(=O)N[C@@H](C(=O)O)CCC(=O)N1C` [MICROCYSTIN-LR] (R[Adda][d(γGlu)][NMeDha][dA]L[dAsp(3S-Me)]-OH; lactam N-7) gave an IC50 [9] of 0.00056 µM, an IC50 [10] of 0.02 nM and an IC50 [11] greater than 0.001 µM. The IC50 [5] was “no inhibition”, the IC50 [12] was 0.0019 µM and the IC50 [13] was 0.0008 µM. It also gave an IC50 [14] of 0.01 nM, an IC50 [15] of 8 pM and an IC50 [16] of 0.02 nM. It also gave an IC50 [17] of 0.029 µM, an IC50 [18] of 0.2 µM and an IC50 [19] of 0.035 µM. It also gave an IC50 [20] of 0.035 µM.

Compound `COC[C@@H]([C@H](O)[C@H](O)C(=O)NCC[C@H](C)c1nc(/C=C/C[C@@H]2O[C@]3(C[C@@H](O)[C@@H]2C)O[C@H]([C@H](C[C@H](O)[C@H](C)[C@H](O)[C@H](C)/C=C(C)/C(C)=C/C=C/C(C)=C\C#N)OC)[C@H](OP(=O)(O)O)C3(C)C)co1)N(C)C` [CALYCULIN A] has an IC50 [9] of 0.0022 µM, an IC50 [10] of 0.45 nM and an IC50 [11] of less than 0.003 µM. The IC50 [5] was “no inhibition”, the IC50 [12] was greater than 0.5 µM and the IC50 [13] was 0.048 µM. It also gave an IC50 [6] of 0.0003 µM, an IC50 [14] of 0.4 nM and an IC50 [16] of 0.14 nM. The IC50 [7] was 0.0002 µM, the IC50 [17] was greater than 0.5 µM and the IC50 [18] was greater than 0.5 µM. For the same compound, the IC50 [19] was greater than 0.5 µM, the IC50 [20] was 0.058 µM and the IC50 [21] was greater than 10000 µM.

`COC1OC(=O)[C@H]2[C@@H]1[C@@H]1CC[C@H]2O1` (stereo partly drawn) showed a GI50 [22] greater than 1000 µM, a GI50 [23] of 538 µM and a GI50 [24] of 143 µM. The GI50 [25] was 323 µM, the IC50 [26] was greater than 1000 µM and the GI50 [27] was 28 µM.

With `C/C=C/C[C@@H](C)[C@@H](O)[C@H]1C(=O)N[C@@H](CC)C(=O)N(C)CC(=O)N(C)[C@@H](CC(C)C)C(=O)N[C@@H](C(C)C)C(=O)N(C)[C@@H](CC(C)C)C(=O)N[C@@H](C)C(=O)N[C@H](C)C(=O)N(C)[C@@H](CC(C)C)C(=O)N(C)[C@@H](CC(C)C)C(=O)N(C)[C@@H](C(C)C)C(=O)N1C` [CYCLOSPORINE] the IC50 (Jurkat [2]) was 0.007 µM, the IC50 (Jurkat [3]) was greater than 1 µM and the IC50 (Jurkat [4]) was 0.008 µM.
